Key:
[1] = system: BMSC (primary human bone marrow mesenchymal stromal cells); experiment: absolute EC50 for viability; higher = less sensitive
[2] = system: BMSC (primary human bone marrow mesenchymal stromal cells); experiment: drug sensitivity score (DSS); higher = more sensitive

SMILES	absolute EC50 for viability [1] [µM]	drug sensitivity score [2]
C=C1C[C@@H]2CC[C@@]34C[C@H]5O[C@H]6[C@@H](O3)[C@H]3O[C@H](CC[C@@H]3O[C@H]6[C@H]5O4)CC(=O)C[C@@H]3[C@@H](OC)[C@@H](C[C@H](O)CN)O[C@H]3C[C@H]3O[C@@H](CC[C@@H]1O2)C[C@@H](C)C3=C [Eribulin]	> 1	12
Clc1ccc(Nc2nnc(Cc3ccncc3)c3ccccc23)cc1 [Vatalanib]	> 10	0
NC(=O)Nc1cc(-c2cccc(F)c2)sc1C(=O)N[C@H]1CCCNC1 [AZD7762]	> 1	7.2
CN(C)C(=O)c1ccc(S(=O)(=O)c2ccc(NC(=O)C(C)(O)C(F)(F)F)c(Cl)c2)cc1 (stereo not drawn) [AZD7545]	> 10	0
COc1ccc(Cn2ccc3ccc(C(=O)NO)cc32)cc1	9.93	0
COc1cc(OC)c(/C=C/S(=O)(=O)Cc2ccc(OC)c(NCC(=O)O)c2)c(OC)c1 [Rigosertib]	> 10	8.9
CC(C)Cn1cnc2c(N)nc3ccccc3c21 [Imiquimod]	> 2.5	0
FC(F)c1nc2ccccc2n1-c1nc(N2CCOCC2)nc(N2CCOCC2)n1 [ZSTK474]	> 10	7.2
COc1ccc(-c2ccc3c(N4CCOC[C@@H]4C)nc(N4CCOC[C@@H]4C)nc3n2)cc1CO [AZD8055]	0.207	17.8
Cn1cc(-c2cnn3c(N)c(Br)c([C@@H]4CCCNC4)nc23)cn1 [MK-8776]	> 2.5	1
Cc1cc(-c2nc(-c3ccc(OC(F)(F)F)cc3)no2)nn1Cc1ccnc(N2CCN(C3CC3)CC2)c1 [BAY 87-2243]	> 1	0
CN(c1ncccc1CNc1nc(Nc2ccc3c(c2)CC(=O)N3)ncc1C(F)(F)F)S(C)(=O)=O	> 10	3.2
C[C@]1(c2nc3c(C(N)=O)cccc3[nH]2)CCCN1 [Veliparib]	> 10	0
Cn1cc(C2=Nc3cc(NC(=O)C(N)C4CCCCC4)cc4c3C2=CNNC4=O)cn1 (stereo not drawn)	1.43	9.2
CC[C@@H](C(=O)[C@@H](C)[C@@H](O)[C@H](C)[C@@H]1O[C@@H]([C@@H](CC)C(=O)O)CC[C@@H]1C)[C@H]1O[C@]2(C=C[C@@H](O)[C@]3(CC[C@@](C)([C@H]4CC[C@](O)(CC)[C@H](C)O4)O3)O2)[C@H](C)C[C@@H]1C [Salinomycin]	1.53	16.8
CC(=O)[C@]1(O)Cc2c(O)c3c(c(O)c2[C@@H](O[C@H]2C[C@H](N)[C@H](O)[C@H](C)O2)C1)C(=O)c1ccccc1C3=O [Idarubicin]	0.233	6.6
Cn1ncnc1[C@H]1c2n[nH]c(=O)c3cc(F)cc(c23)N[C@@H]1c1ccc(F)cc1 [Talazoparib]	> 1	1
Cc1ccc(NC(=O)c2ccc(CN3CCN(C)CC3)cc2)cc1Nc1nc(-c2cccnc2)cs1 [Masitinib]	2.86	8.8
Cc1c2oc3c(C)ccc(C(=O)N[C@@H]4C(=O)N[C@H](C(C)C)C(=O)N5CCC[C@H]5C(=O)N(C)CC(=O)N(C)[C@@H](C(C)C)C(=O)O[C@@H]4C)c3nc-2c(C(=O)N[C@@H]2C(=O)N[C@H](C(C)C)C(=O)N3CCC[C@H]3C(=O)N(C)CC(=O)N(C)[C@@H](C(C)C)C(=O)O[C@@H]2C)c(N)c1=O [Dactinomycin]	0.0507	19
COc1cc2c(NC3CCN(C(C)C)CC3)nc(C3CCCCC3)nc2cc1OCCCN1CCCC1 [UNC0638]	3.29	5.4
CC1(C)CCC(c2ccc(Cl)cc2)=C(CN2CCN(c3ccc(C(=O)NS(=O)(=O)c4ccc(N[C@H](CCN5CCOCC5)CSc5ccccc5)c(S(=O)(=O)C(F)(F)F)c4)cc3)CC2)C1 [Navitoclax]	> 10	0
CC(C)(O)CC(=O)NCCn1ccc2ncnc(Nc3ccc(Oc4cccc(C(F)(F)F)c4)c(Cl)c3)c21 [TAK-285]	> 2.5	0.4
C=CC(=O)Nc1cc(Nc2nccc(-c3cn(C)c4ccccc34)n2)c(OC)cc1N(C)CCN(C)C [Osimertinib]	> 2.5	1.5
CN(C)CCCOc1ccc(-c2ccc3ncc4c(c3c2)n(C2CCOCC2)c(=O)n4C)cn1 [AZD0156]	> 1	1.9
O=C(O)c1ccc(-c2c[nH]c3ncc(-c4ccccc4)cc23)cc1C1CCCC1	> 10	0.7
CC/C(=C(\c1ccc(O)cc1)c1ccc(OCCN(C)C)cc1)c1ccccc1 [4-hydroxytamoxifen]	9.93	0
Cc1c(N)nc([C@H](CC(N)=O)NC[C@H](N)C(N)=O)nc1C(=O)N[C@H](C(=O)N[C@H](C)[C@@H](O)[C@H](C)C(=O)N[C@H](C(=O)NCCc1nc(-c2nc(C(=O)NCCC[S+](C)C)cs2)cs1)[C@@H](C)O)[C@@H](OC1OC(CO)C(O)C(O)C1OC1OC(CO)C(O)C(OC(N)=O)C1O)c1cnc[nH]1 (stereo partly drawn) [Bleomycin]	> 10	2.5

SMILES	absolute EC50 for viability [1] [µM]	drug sensitivity score [2]
CCCS(=O)(=O)Nc1ccc(F)c(C(=O)c2c[nH]c3ncc(-c4ccc(Cl)cc4)cc23)c1F [Vemurafenib]	> 10	0
CC[C@@H]1[C@H](F)C(=O)N[C@@H]1COc1nccc2cc(C(N)=O)c(OC)cc12	> 10	0.3
COc1cc(Nc2ncc3c(n2)-c2ccc(Cl)cc2C(c2c(F)cccc2OC)=NC3)ccc1C(=O)O [Alisertib]	> 10	0
Cc1ccc(=O)n(-c2ccccc2)c1 [Pirfenidone]	> 10	0
C[C@@H]1C[C@H]2[C@@H]3CCC4=CC(=O)C=C[C@]4(C)[C@@]3(F)[C@@H](O)C[C@]2(C)[C@@]1(O)C(=O)CO [Dexamethasone]	> 10	0
CN1CCN(C2CCN(C(=O)Nc3cc(Oc4ccc(NC(=O)C5(C(=O)Nc6ccc(F)cc6)CC5)c(F)c4)ccn3)CC2)CC1 [Golvatinib]	> 2.5	2.7
CS(=O)(=O)c1ccc(C(=O)Nc2ccc(Cl)c(-c3ccccn3)c2)c(Cl)c1 [Vismodegib]	> 10	0
Nc1ncnc2c1c(-c1cccc(OCc3ccccc3)c1)cn2C1CC(CN2CCC2)C1 (stereo not drawn) [NVP-AEW541]	6.04	4.5
CCN(CC)C(=S)SSC(=S)N(CC)CC [Disulfiram]	> 50	0
O=S(=O)(c1cccc2c(O)nccc12)N1CCCNCC1 [Hydroxyfasudil]	> 19	1
CC(C)Oc1ccc(C(=O)N[C@H](CNC(=O)CN(C)C)Cc2ccc(-c3cn4cccc([C@H](C)O)c4n3)cc2)cc1Cl	9.93	0
C#Cc1cccc(Nc2ncnc3cc4c(cc23)OCCOCCOCCO4)c1 [Icotinib]	> 10	2.1
CNC(=O)c1ccc(N2C(=S)N(c3cnc(C#N)c(C(F)(F)F)c3)C(=O)C23CCC3)cc1F [Apalutamide]	> 10	0
O=C(O)CNC(=O)c1c(O)c2ccccc2n(Cc2ccccc2)c1=O [IOX-2]	> 50	1.9
Cc1ccc(F)c(NC(=O)Nc2ccc(-c3cccc4[nH]nc(N)c34)cc2)c1 [Linifanib]	> 1	0
Cc1nc(-c2cn3c(n2)-c2ccc(-c4cnn(C(C)(C)C(N)=O)c4)cc2OCC3)n(C(C)C)n1 [Taselisib]	> 1	8.9
COc1cccc2c1c(O)c(C(=O)N(C)c1ccc(C(F)(F)F)cc1)c(=O)n2C [Tasquinimod]	> 10	0.8
CN(C)C1CCN(C(=O)c2ccc(NC(=O)Nc3ccc(-c4nc(N5CCOCC5)nc(N5CCOCC5)n4)cc3)cc2)CC1 [Gedatolisib]	0.0437	14.3
O=c1[nH]c(=O)n([C@H]2C[C@H](O)[C@@H](CO)O2)cc1C(F)(F)F [Trifluridine]	> 10	0
Cc1c(-c2ccc(N3CCc4cccc(C(=O)Nc5nc6ccccc6s5)c4C3)nc2C(=O)O)cnn1CC12CC3CC(CC(C3)C1)C2	> 1	0
Cc1cc2c(C(C)C)c(O)c(O)c(C=O)c2c(O)c1-c1c(C)cc2c(C(C)C)c(O)c(O)c(C=O)c2c1O [AT 101]	28.1	6.1
COCC[n+]1c2c(n(Cc3cnccn3)c1C)C(=O)c1ccccc1C2=O [Sepantronium bromide]	0.0705	25.4
C[C@@H](Oc1cc(-n2cnc3ccc(CN4CCN(C)CC4)cc32)sc1C(N)=O)c1ccccc1C(F)(F)F	1.89	8
COc1ccc(S(=O)(=O)Nc2cccnc2Nc2ccc(O)cc2)cc1 [ABT-751]	> 10	5.5
N[C@@H]1CCCN(c2c(/C=C3\SC(=O)NC3=O)cccc2-c2ccccc2)C1 [AZD1208]	> 10	0.5
CO[C@H]1C(=O)[C@]2(C)[C@@H](OC)C[C@H]3OC[C@@]3(OC(C)=O)[C@H]2[C@H](OC(=O)c2ccccc2)[C@]2(O)C[C@H](OC(=O)[C@H](O)[C@@H](NC(=O)OC(C)(C)C)c3ccccc3)C(C)=C1C2(C)C [Cabazitaxel]	> 1	7.2
CC(O)c1cc(C(=O)N[C@@H](C)Cn2ccc(-c3ccc(C#N)c(Cl)c3)n2)n[nH]1 (stereo partly drawn) [ODM-201]	> 2.5	0

Source: the supplement of paper PMC9103864
